Patent US20190134148A1, “COMBINATION THERAPY” (BIG DNA LTD, priority 2016, published 2019)
Read-outs that look alike come from different tables or passages of the source.

Experiments:
[1] = Sprague-Dawley rats; AUC intravenous versus intra-gastric administration; cited from earlier work
[2] = test system: WSU-DLCL2 lymphoma xenograft; details: at MTD; cited from earlier work
[3] = test system: NCI H-929 human multiple myeloma cells; assay: NCI-H929 sub-cutaneous xenograft mouse tumor model, 'high' bortezomib dose (Example 7); assay type: in vivo, SCID mouse; details: for Complete response / No response / Partial response: mice of N = 10; for Complete response / No response / Partial response / Total RR %: bortezomib 1 mg/kg IV biweekly, cilengitide 45 mg/kg IP QD; for Total RR %: sum of PR+CR
Source text: This was then continued until Day 21.
Partial response (PR) is defined as the first measurement of the tumor volume being 50% or less of its Day 1 volume for three consecutive measurements during the course of the study, and equal to or greater than 13.5 mm^3 for one or more of these three measurements. In a complete response (CR), the tumor volume was less than 13.5 mm^3 for three consecutive measurements during the course of the study. Total response rate (RR) is the sum of PR+CR. Treatment began on day 1 and was stopped on Day 21.

[4] = test system: NCI H-929 multiple myeloma cell line; assay: NCI H-929 sub cutaneous tumour study with varied BTZ dose, TGI and TTE (Example 8); assay type: in vivo, mice; details: day 18
Method: Cilengitide or vehicle was supplied as daily intra-peritoneal injection (45 mg/kg). […] After this point, dosing was continued in groups receiving 0.2 mg/kg and 0.5 mg/kg BTZ t cilengitide until day 31 to allow comparative tumour growth delay (i.e. difference in time to endpoint (TTE). […] TTE was calculated as TTE=[log(endpoint volume)-b]/m where TTE is expressed in days, endpoint volume is expressed in mm^3, b is the intercept, and m is the slope of the line obtained by linear regression of a log-transformed tumour growth data set. TTE values were plotted in Kaplan-Meier diagrams (FIGS. 9 and 10).

[5] = CD-1 mice; 4 mg/kg PO versus 0.8 mg/kg intravenously; cited from earlier work
20S proteasome = 20S proteasome (Homo sapiens, UniProt P20618+P28074); details: cited from earlier work
[6] = test system: CWR22 human prostate cancer xenografts; details: cited from earlier work
[7] = test system: T47D breast cancer cell line; assay: Sulforhodamine B viability assay and isobologram / combination index in T47D cells; assay type: cell-based; details: for CI: single agent
Method: For assessment of combined BTZ and cilengitide toxicity, T47D cells were seeded at a density of 7500 cells/cm^2 in 96-well cell culture plates and incubated for 24 hours. Cilengitide was diluted to 20 μM in complete DMEM, then 3 serial tenfold dilutions of this were performed in complete DMEM (2 μM, 200 nM and 20 nM). Complete DMEM containing no cilengitide was provided for negative controls.
These dilutions (or DMSO for wells containing no BTZ) were added to aliquots of complete DMEM containing 0-20 μM cilengitide for a 1/150 dilution. Aliquots (0.1 mL) of each mixture were added to wells already containing 0.1 mL medium (in duplicate), resulting in a matrix of cilengitide (10 nM-10 μM) and/or BTZ (1 nM-10 μM) or neither agent (diluent only).
OD570nm readings were divided by those resulting from negative control (diluent only) wells and expressed as a percentage. Three independent replicates of this experiment were carried out.
The isoboles were obtained similarly by extrapolation of points representing 50% reduction in viability from line graphs of % viability versus concentration of one agent at variable concentration with the other agent supplied at a fixed concentration.
The position of the points on this graph (FIG. 6) indicates whether a combined effect is synergistic (falling below/left of the line) antagonistic (falling above/right of this line) or additive (on or close to this line).
CA,x and CB,x are the concentrations of drug A and drug B used in combination to achieve x % drug effect. ICx,A and ICx,B are the concentrations for single agents to achieve the same effect.

[8] = test system: chymotrypsin-like activity of the proteasome; details: highest dose used in the phase I trial; cited from earlier work
[9] = phase II trials; heavily pretreated patient population; cited from earlier work
Cos7 cells = assay: Sulforhodamine B relative cell growth assay in Cos7 cells; assay type: cell-based; details: COS-7 (αvβ3−ve); 10 μM proteasome inhibitor without cRGDfK
HEK293 cells = assay: Sulforhodamine B relative cell growth assay in HEK293 cells; assay type: cell-based; details: HEK293 (αvβ3+ve); 10 μM proteasome inhibitor without cRGDfK
Method: Established methodology was used to prepare 80-100% confluent monolayers of HEK293 cells in T75 flasks. Cells were cultured in DMEM (Lonza) supplemented with 10% FBS (Gibco), 2 mM L-glutamine, 100 U/mL penicillin and 100 μg/mL streptomycin (“complete DMEM”).
The cells in T75 flasks were trypsinised and resuspended in complete DMEM. The cells were counted using a Neubauer chamber and seeded at approximate density of 3×10^4 cells/cm^2 and 7500 cells/cm^2 in 96 well flat bottomed tissue culture plates (Corning) 0.1 mL cell suspension per well. Cells were incubated for 24 hours at 37° C./5% CO2 (humidified). […]
Briefly: medium was removed from wells and replaced with an equal volume of PBS. […] Optical density (OD570nm) was determined using an ELISA plate reader (Dynex MRX, Dynex Technologies).
In total, 5 replicates of the experiment were carried out. Cells treated with peptide/BTZ mixtures or control mixtures were incubated for 24 hours at 37° C./5% CO2 (humidified) then analysed by sulforhodamine B assay.
The average of the background measurements (i.e. no cells, medium only) was subtracted from each reading. ‘Ti’ is OD570nm following 24 hours treatment with drugs. […]
Using these equations, control cell growth is assigned a relative cell growth value of 100% and all cell growth values are calculated relative to this figure. […]

[10] = Cilengitide oral bioavailability, plasma level by LC-MS after intra-gastric gavage; assay type: in vivo; details: mice, 100 mg/kg intra-gastric gavage
Method: 3 mice were dosed with cilengitide at 100 mg/kg by intra-gastric gavage. Bleeds (0.1 mL) were taken before dosing and 5 and 15 minutes post dosing. Terminal bleeds (orbital vein) were taken at 60 minutes post-dose. All bleeds were transferred into Li-heparin tubes and plasma prepared by centrifugation. Aliquots of plasma (pooled per timepoint) were processed for analysis by addition of 3 volumes of acetonitrile, centrifuged for 1 minute at 13,000 rpm, then the supernatant recovered.
Samples were analysed by LC-MS alongside standards containing known amounts of cilengitide (1 ng/mL-1000 ng/mL). Cilengitide was undetectable in pre-dose, 5 minute and 15 minute time points. At the 60 minute time point: cilengitide levels were estimated to be 94.2 ng/mL.

DP54-Luc model = details: in vivo; cited from earlier work
PHTX22L xenografts = details: MTD level treatment; cited from earlier work
chymotrypsin-like sites = chymotrypsin-like sites (Homo sapiens, UniProt P28074); details: cited from earlier work
[11] = By Day 42, treatment stopped on Day 21, N = 10
[12] = at maximum tolerated dose (MTD)

Sequence of chymotrypsin-like sites (P28074 60-263): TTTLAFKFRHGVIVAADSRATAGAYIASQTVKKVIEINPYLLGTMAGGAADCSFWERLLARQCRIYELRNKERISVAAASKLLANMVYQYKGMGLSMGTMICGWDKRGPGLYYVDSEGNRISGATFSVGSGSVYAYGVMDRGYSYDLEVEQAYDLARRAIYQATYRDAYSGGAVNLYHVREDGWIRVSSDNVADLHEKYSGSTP

CC(C)C[C@H](NC(=O)[C@H](Cc1ccccc1)NC(=O)c1cnccn1)B(O)O [Bortezomib]
calculated bioavailability [1]: 46%
anti-tumoral activity [2]: ineffective
mice showing a complete response ([3]; By Day 8, bortezomib 1 mg/kg): 10%
animals remained 'cured' (tumours did not regrow) ([3]; By Day 42, treatment stopped on Day 21): 60%
animals that reached end point (tumour volume>2000 mm^3) [3, 11]: 1
animals that relapsed [3, 11]: 3 animals
Complete response ([3]; Day 1): 0
No response ([3]; Day 1): 10
Partial response ([3]; Day 1): 0
Total RR % ([3]; Day 1, N = 10): 0%
Complete response ([3]; Day 4): 0
No response ([3]; Day 4): 7
Partial response ([3]; Day 4): 3
Total RR % ([3]; Day 4, N = 10): 30%
Total RR % ([3]; Day 4, N = 10, listed as bortezomib): 30%
Complete response ([3]; Day 8): 1
No response ([3]; Day 8): 3
Partial response ([3]; Day 8): 6
Total RR % ([3]; Day 8, N = 10): 70%
Complete response ([3]; Day 12): 4
No response ([3]; Day 12): 2
Partial response ([3]; Day 12): 4
Complete response ([3]; Day 15): 4
No response ([3]; Day 15): 2
Partial response ([3]; Day 15): 4
Complete response ([3]; Day 18): 4
No response ([3]; Day 18): 1
Partial response ([3]; Day 18): 5
Total RR % ([3]; Day 18, N = 10): 90%
Complete response ([3]; Day 21): 5
No response ([3]; Day 21): 1
Partial response ([3]; Day 21): 4
Total RR % ([3]; Day 21, N = 10): 90%
Total RR % ([3]; Day 21, N = 10, listed as bortezomib): 90%
mice that failed to respond at all ([3]; last treatment day (Day 21), bortezomib 1 mg/kg): 10%
Tumour growth inhibition (TGI) ([4]; 0.5 mg/kg BTZ and below, without cilengitide): virtually ineffective
Tumour growth inhibition (TGI) ([4]; BTZ doses of 0.7 mg/kg and greater, biweekly intravenous): almost complete TGI
estimated oral bioavailability [5]: approximately 11%
proteasome dissociation half-life (20S proteasome): approximately 110 minutes
anti-tumoral activity [6, 12]: effective anti-tumoral activity
CI [7]: 1.00

CC(C)C[C@H](NC(=O)[C@H](CCc1ccccc1)NC(=O)CN1CCOCC1)C(=O)N[C@@H](Cc1ccccc1)C(=O)N[C@@H](CC(C)C)C(=O)[C@@]1(C)CO1 [Carfilzomib]
inhibition of the chymotrypsin-like activity of the proteasome in blood of patients [8]: 88%
partial response rate [9]: 24%
Growth relative to untreated control cells (Cos7 cells): greater activity than ixazomib, delanzomib and oprozomib
Growth relative to untreated control cells (HEK293 cells): greater activity than ixazomib, delanzomib and oprozomib

CC(C)[C@H]1C(=O)N[C@@H](CCCN=C(N)N)C(=O)NCC(=O)N[C@@H](CC(=O)O)C(=O)N[C@H](Cc2ccccc2)C(=O)N1C [Cilengitide]
Complete response ([3]; Day 1): 0
No response ([3]; Day 1): 10
Partial response ([3]; Day 1): 0
Total RR % ([3]; Day 1, N = 10): 0%
Complete response ([3]; Day 4): 0
No response ([3]; Day 4): 10
Partial response ([3]; Day 4): 0
Total RR % ([3]; Day 4, N = 10): 0%
Complete response ([3]; Day 8): 0
No response ([3]; Day 8): 10
Partial response ([3]; Day 8): 0
Total RR % ([3]; Day 8, N = 10): 0%
Complete response ([3]; Day 12): 0
No response ([3]; Day 12): 10
Partial response ([3]; Day 12): 0
Total RR % ([3]; Day 12, N = 10): 0%
Complete response ([3]; Day 15): 0
No response ([3]; Day 15): 10
Partial response ([3]; Day 15): 0
Total RR % ([3]; Day 15, N = 10): 0%
Complete response ([3]; Day 18): 0
No response ([3]; Day 18): 10
Partial response ([3]; Day 18): 0
Total RR % ([3]; Day 18, N = 10): 0%
Complete response ([3]; Day 21): 0
No response ([3]; Day 21): 10
Partial response ([3]; Day 21): 0
Total RR % ([3]; Day 21, N = 10): 0%
cilengitide levels in plasma ([10]; 5 minute time point): undetectable
cilengitide levels in plasma ([10]; 15 minute time point): undetectable
level at 1 h ([10]; mouse, plasma, po, 60 minute time point, read-out: cilengitide levels in plasma): 94.2 ng/mL
IC50 ([7]; read-out: Cilengitide (M), concentration resulting in 50% reduction in viability as single agent (IC50), bortezomib 0): 6.2e-06 M
CI [7]: 1.00

CC(C)C[C@H](NC(=O)CNC(=O)c1cc(Cl)ccc1Cl)B(O)O [Ixazomib, [(1R)-1-[[2-[(2,5-dichlorobenzoyl)amino]acetyl]amino]-3-methyl-butyl]boronic acid]
alleviation of osteolytic bone disease (DP54-Luc model): effective
anti-tumoral activity [2]: significant anti-tumoral activity
proteasome dissociation half-life (20S proteasome): approximately 18 minutes
release from proteasome, fold faster than bortezomib (20S proteasome): approximately 6 fold
anti-tumoral effect (PHTX22L xenografts): only ixazomib was found to exhibit an anti-tumoral effect
anti-tumoral activity ([6]; at half the MTD): more effective than bortezomib
anti-tumoral activity [6, 12]: effective anti-tumoral activity

C[C@@]12OC(=O)[C@]1([C@@H](O)[C@@H]1C=CCCC1)NC(=O)[C@@H]2CCCl [Marizomib]
inhibition of the chymotrypsin-like sites (chymotrypsin-like sites): up to 100%
